According to patent US20050197371A1, “Urea derivatives as PDGFR modulators” (Ambit Biosciences Corporation, priority 2003, published 2005):
Like-named read-outs stand apart in the source and are kept apart here.

Tests used:
[1] = target: T1, PDGFRB(JMminus) (PDGFR-β) (Homo sapiens, UniProt P09619); assay: Phage-display competitive binding assay, PDGFRB(JMminus)
T1 construct: PDGFRB(JMminus)
Description: (§1) Briefly, T7 phage displaying human PDGFR-β were incubated with an affinity matrix coated with known PDGFR-β inhibitor in the presence of various concentrations of the soluble competitor molecules.

[2] = target: T2, PDGFRB(DKIN) (PDGFR-β) (Homo sapiens, UniProt P09619); assay: Phage-display competitive binding assay, PDGFRB(DKIN)
T2 construct: PDGFRB(DKIN)
Description: The term “ND” represents non-determined values.
as §1

[3] = target: T3, PDGFRB(JMplus) (PDGFR-β) (Homo sapiens, UniProt P09619); assay: Phage-display competitive binding assay, PDGFRB(JMplus)
T3 construct: PDGFRB(JMplus)
T3 sequence (P09619 600-962 limits assumed): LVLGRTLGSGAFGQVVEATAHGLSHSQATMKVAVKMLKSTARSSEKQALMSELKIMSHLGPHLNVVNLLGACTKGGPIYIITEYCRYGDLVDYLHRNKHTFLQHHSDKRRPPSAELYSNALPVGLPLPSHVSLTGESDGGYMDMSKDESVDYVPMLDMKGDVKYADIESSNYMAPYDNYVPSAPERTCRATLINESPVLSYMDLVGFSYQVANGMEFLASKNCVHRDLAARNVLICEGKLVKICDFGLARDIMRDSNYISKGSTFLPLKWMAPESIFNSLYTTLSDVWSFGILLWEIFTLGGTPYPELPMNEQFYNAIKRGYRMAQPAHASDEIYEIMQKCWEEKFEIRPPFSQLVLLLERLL
Description: as §1

[4] = T7 phage displaying human PDGFR-β, DKIN construct; read-out: Binding Assay: PDGFRB(DKIN)

T1 sequence (P09619 600-962 limits assumed): as above

Row | SMILES | Kd [2, 4] | also measured
1 | CC(C)(C)c1cc(NC(=O)Nc2ccc(NC(=O)c3ncccc3O)cc2)no1 [Compound N134] | – | Kd [1]: < 100 nM; Kd ([2]; read-out: Binding Assay: PDGFRB(DKIN); T7 phage displaying human PDGFR-β, DKIN construct): < 100 nM; Kd [3]: < 100 nM
2 | CC(C)(C)c1cc(NC(=O)Nc2ccc(Nc3nc(Cl)nc4[nH]cnc34)cc2)no1 [Compound O4] | < 100 nM | –
3 | CC(C)(C)c1cc(NC(=O)Nc2ccc(NC(=O)c3cc(Cl)cn(Cc4ccccc4)c3=O)cc2)no1 [Compound N112] | 100 to 1000 nM | –
4 | CC(C)(C)c1cc(NC(=O)Nc2ccc(-c3nc(-c4cccc5ccccc45)no3)cc2)no1 [Compound P5] | 100 to 1000 nM | –
5 | CSc1ncc(Br)c(C(=O)Nc2ccc(NC(=O)Nc3cc(C(C)(C)C)on3)cc2)n1 [Compound N114] | < 100 nM | –
6 | CC(C)(C)c1cc(NC(=O)Nc2ccc(OCCc3ccncc3)cc2)no1 [Compound G22] | < 100 nM | –
7 | CC(C)(C)c1cc(NC(=O)Nc2ccc(NC(=O)c3cc(N4CCOCC4)nc(N4CCOCC4)n3)cc2)no1 [Compound N54] | < 100 nM | –
8 | CC(C)(C)c1cc(NC(=O)Nc2ccc(Cl)cc2Cl)no1 [Compound A7] | 1000 to 10000 nM | –

The next lines start with results.

Row | Kd [2, 4] | SMILES | also measured
9 | < 100 nM | CC(C)(C)c1cc(NC(=O)Nc2ccc(NC(=O)c3ccccn3)cc2)no1 [Compound N188] | Kd ([1]; T7 phage displaying human PDGFR-β, JMminus construct, read-out: Binding Assay: PDGFRB(JMminus)): < 100 nM; Kd ([3]; T7 phage displaying human PDGFR-β, JMplus construct, read-out: Binding Assay: PDGFRB(JMplus)): < 100 nM
10 | 100 to 1000 nM | CC(C)(C)c1cc(NC(=O)Nc2ccc(C(=O)Nc3ccccc3)cc2)no1 [Compound N90] | –
11 | < 100 nM | CC(C)(C)c1cc(NC(=O)Nc2ccc(NC(=O)Cc3noc4ccccc34)cc2)no1 [Compound N80] | –
